Assay results reported in patent publication US20120157471A1, “BENZIMIDAZOLE DERIVATIVES” (PFIZER INC., priority 2009, published 2012).
pIC50: −log10 of the molar value.

Columns and labels:
[1] = molecular target: T1, human Smo (amino acids 181-787) (Homo sapiens, UniProt Q99835); assay: Smo radioligand competition binding assay (displacement of 3H-PF-03451358 from HEK293 membranes); details: for inhibition at 0.05 µM: 0.05 μM test compound, displacement of 3H-PF-03451358, read-out: SMO % inh. @ 0.05 μM; for pIC50: radioligand competition binding
T1 construct: expressed in transfected cells; membrane preparation
Outline: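 Displacement of 3 nM tritiated PF-03451358 measured by filtration and scintillation counting after 2 h at room temperature, using 40 μg/well HEK293 membranes bearing cell-surface Smo 181-787, pH 7.5 buffer. Specific binding defined against 30 μM unlabelled ligand; IC50 via variable-slope sigmoidal fit.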

Gli-Luc/MEF cells (Smo) = assay: Gli-Luc/MEF assay (Shh-stimulated luciferase reporter under the Gli response element); assay type: cell-based, mouse; details: Mus musculus, MEF, 48 h
Outline: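 IC50 derived from luminescence (Bright-Glo) after 48 h at 37° C, 5% CO2, with compound at […] (3-fold dilutions) added together with mouse Shh at 2 μg/mL final. Cells: MEFs from Gli-Luc transgenic mice.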

T1 sequence (Q99835 181-787): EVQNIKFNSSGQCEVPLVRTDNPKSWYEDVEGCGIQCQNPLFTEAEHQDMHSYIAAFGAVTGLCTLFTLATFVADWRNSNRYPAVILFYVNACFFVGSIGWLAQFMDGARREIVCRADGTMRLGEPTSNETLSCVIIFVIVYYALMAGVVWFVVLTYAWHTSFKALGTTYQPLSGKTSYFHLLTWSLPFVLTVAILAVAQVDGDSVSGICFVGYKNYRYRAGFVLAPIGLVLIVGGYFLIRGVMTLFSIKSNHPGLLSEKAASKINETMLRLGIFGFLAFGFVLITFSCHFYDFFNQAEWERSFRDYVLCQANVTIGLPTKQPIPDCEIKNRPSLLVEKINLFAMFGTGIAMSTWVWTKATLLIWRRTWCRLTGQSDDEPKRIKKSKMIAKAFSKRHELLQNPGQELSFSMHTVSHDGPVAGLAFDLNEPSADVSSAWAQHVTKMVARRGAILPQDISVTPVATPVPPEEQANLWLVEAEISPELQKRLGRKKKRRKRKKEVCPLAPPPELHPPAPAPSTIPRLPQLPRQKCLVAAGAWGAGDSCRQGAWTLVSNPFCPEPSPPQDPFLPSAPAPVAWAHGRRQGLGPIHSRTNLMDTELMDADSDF

## CC(=O)N1CCN(c2cc(-c3nc4ccccc4n3C)c(F)cn2)CC1 [Example D-1, 2-[2-(4-acetylpiperazin-1-yl)-5-fluoropyridin-4-yl]-1-methyl-1H-benzimidazole]
[1]
  inhibition at 0.05 µM: 97%
  pIC50: 7.66
Gli-Luc/MEF cells (Smo)
  pIC50: 7.57

## CC(=O)N1CCN(c2cc(-c3nc4ccccc4n3C)c(Cl)cn2)CC1 [Example A-1, 2-[2-(4-acetylpiperazin-1-yl)-5-chloropyridin-4-yl]-1-methyl-1H-benzimidazole]
[1]
  inhibition at 0.05 µM: 90%
  pIC50: 7.82
Gli-Luc/MEF cells (Smo)
  pIC50: 8.40

## Cn1c(-c2cc(N3CCNCC3)ncc2Cl)nc2ccccc21 [Example A-23, 2-(5-chloro-2-piperazin-1-ylpyridin-4-yl)-1-methyl-1H-benzimidazole]
[1]
  inhibition at 0.05 µM: 88%
  pIC50: 7.25
Gli-Luc/MEF cells (Smo)
  pIC50: 7.51

## CNC(=O)N(C)C1CCN(c2cc(-c3nc4ccccc4n3C)c(Cl)cn2)C1 (centres unmarked) [Example A-182, 1-{1-[5-chloro-4-(1-methyl-1H-benzimidazol-2-yl)pyridin-2-yl]pyrrolidin-3-yl}-1,3-dimethylurea]
[1]
  inhibition at 0.05 µM: 85%
  pIC50: 7.30
Gli-Luc/MEF cells (Smo)
  pIC50: 7.51

## Cn1cnnc1C1CCN(c2cc(-c3nc4ccccc4n3C)c(Cl)cn2)CC1 [Example A-132, 2-{5-chloro-2-[4-(4-methyl-4H-1,2,4-triazol-3-yl)piperidin-1-yl]pyridin-4-yl}-1-methyl-1H-benzimidazole]
[1]
  inhibition at 0.05 µM: 51%
Gli-Luc/MEF cells (Smo)
  pIC50: 6.70

## Cn1c(-c2nc(N3CCOCC3)ncc2Cl)nc2ccccc21 [Example C-12, 2-(5-chloro-2-morpholin-4-ylpyrimidin-4-yl)-1-methyl-1H-benzimidazole]
[1]
  inhibition at 0.05 µM: 93%
  pIC50: 7.33
Gli-Luc/MEF cells (Smo)
  pIC50: 7.22

## Cn1c(-c2cc(N3CCC(O)CC3)ncc2Cl)nc2cccnc21 [Example A-169, 1-[5-chloro-4-(3-methyl-3H-imidazo[4,5-b]pyridin-2-yl)pyridin-2-yl]piperidin-4-ol]
[1]
  inhibition at 0.05 µM: 76%
  pIC50: 6.66
Gli-Luc/MEF cells (Smo)
  pIC50: 6.86

## Cn1c(-c2cc(N3C[C@H]4CNS(=O)(=O)[C@H]4C3)ncc2Cl)nc2ccccc21 (stereo in doubt) [Example A-55, 2-{5-chloro-2-[(3aS,6aR)-1,1-dioxidohexahydro-5H-pyrrolo[3,4-d]isothiazol-5-yl]pyridin-4-yl}-1-methyl-1H-benzimidazole]
[1]
  inhibition at 0.05 µM: 98%
  pIC50: 7.59
Gli-Luc/MEF cells (Smo)
  pIC50: 8.00

## Cn1c(-c2cc(N3CCC(C)(O)CC3)ncc2Cl)nc2ccccc21 [Example A-30, 1-[5-chloro-4-(1-methyl-1H-benzimidazol-2-yl)pyridin-2-yl]-4-methylpiperidin-4-ol]
[1]
  inhibition at 0.05 µM: 96%
  pIC50: 7.55
Gli-Luc/MEF cells (Smo)
  pIC50: 7.96

## C[C@@H]1CN(c2cc(-c3nc4ccccc4n3C)c(Cl)cn2)CCN1 [Example A-157, 2-{5-chloro-2-[(3R)-3-methylpiperazin-1-yl]pyridin-4-yl}-1-methyl-1H-benzimidazole]
[1]
  inhibition at 0.05 µM: 95%
  pIC50: 7.46
Gli-Luc/MEF cells (Smo)
  pIC50: 7.62

## CN1CC2(CCN(c3cc(-c4nc5ccccc5n4C)c(Cl)cn3)CC2)OC1=O [Example A-197, 8-[5-chloro-4-(1-methyl-1H-benzimidazol-2-yl)pyridin-2-yl]-3-methyl-1-oxa-3,8-diazaspiro[4.5]decan-2-one]
[1]
  inhibition at 0.05 µM: 96%
  pIC50: 8.00
Gli-Luc/MEF cells (Smo)
  pIC50: 8.16

## CN(CCNS(C)(=O)=O)c1cc(-c2nc3ccccc3n2C)c(Cl)cn1 [Example A-145, N-(2-{[5-chloro-4-(1-methyl-1H-benzimidazol-2-yl)pyridin-2-yl](methyl)amino}ethyl)methanesulfonamide]
[1]
  inhibition at 0.05 µM: 97%
  pIC50: 7.66
Gli-Luc/MEF cells (Smo)
  pIC50: 7.66

## Cn1c(-c2cc(N3CC[C@@H](O)C3)ncc2Cl)nc2ccccc21 [Example A-26, (3R)-1-[5-chloro-4-(1-methyl-1H-benzimidazol-2-yl)pyridin-2-yl]pyrrolidin-3-ol]
[1]
  inhibition at 0.05 µM: 64%
  pIC50: 6.78
Gli-Luc/MEF cells (Smo)
  pIC50: 7.31

## Cn1c(-c2cc(N3CCN(S(C)(=O)=O)CC3)ncc2Cl)nc2ccccc21 [Example A-4, 2-{5-chloro-2-[4-(methylsulfonyl)piperazin-1-yl]pyridin-4-yl}-1-methyl-1H-benzimidazole]
[1]
  inhibition at 0.05 µM: 91%
  pIC50: 7.53
Gli-Luc/MEF cells (Smo)
  pIC50: 8.52

## Cn1c(-c2cc(N3CCC(N4CCC(O)CC4)CC3)ncc2Cl)nc2ccccc21 [Example A-119, 1′-[5-chloro-4-(1-methyl-1H-benzimidazol-2-yl)pyridin-2-yl]-1,4′-bipiperidin-4-ol]
[1]
  inhibition at 0.05 µM: 64%
Gli-Luc/MEF cells (Smo)
  pIC50: 6.95

## CC(=O)N1CCN(c2cccc(-c3nc4ccccc4n3C)n2)CC1 [Example B-8, 2-[6-(4-acetylpiperazin-1-yl)pyridin-2-yl]-1-methyl-1H-benzimidazole]
[1]
  inhibition at 0.05 µM: 90%
  pIC50: 7.49
Gli-Luc/MEF cells (Smo)
  pIC50: 7.34

## Cn1c(-c2cc(N3CCOCC3)ncc2Cl)nc2ccccc21 [Example A-34, 2-(5-chloro-2-morpholin-4-ylpyridin-4-yl)-1-methyl-1H-benzimidazole]
[1]
  inhibition at 0.05 µM: 95%
  pIC50: 7.66
Gli-Luc/MEF cells (Smo)
  pIC50: 7.80

## CC(=O)N(C)C1CN(c2cc(-c3nc4ccccc4n3C)c(Cl)cn2)C1 [Example A-177, N-{1-[5-chloro-4-(1-methyl-1H-benzimidazol-2-yl)pyridin-2-yl]azetidin-3-yl}-N-methylacetamide]
[1]
  inhibition at 0.05 µM: 73%
  pIC50: 6.76
Gli-Luc/MEF cells (Smo)
  pIC50: 7.42

## Cn1c(-c2cc(N3CCN(C(=O)CO)CC3)ncc2Cl)nc2ccccc21 [Example A-202, 2-{4-[5-chloro-4-(1-methyl-1H-benzimidazol-2-yl)pyridin-2-yl]piperazin-1-yl}-2-oxoethanol]
[1]
  inhibition at 0.05 µM: 97%
  pIC50: 7.96
Gli-Luc/MEF cells (Smo)
  pIC50: 8.05

## CN(C)CC(=O)N1CCN(c2ncc(Cl)c(-c3nc4ccccc4n3C)n2)CC1 [Example C-15, 2-{4-[5-chloro-4-(1-methyl-1H-benzimidazol-2-yl)pyrimidin-2-yl]piperazin-1-yl}-N,N-dimethyl-2-oxoethanamine]
[1]
  inhibition at 0.05 µM: 95%
  pIC50: 7.19
Gli-Luc/MEF cells (Smo)
  pIC50: 8.05

## COC(=O)N1CCN(c2cc(-c3nc4ccccc4n3C)c(F)cn2)CC1 [Example D-2, methyl 4-[5-fluoro-4-(1-methyl-1H-benzimidazol-2-yl)pyridin-2-yl]piperazine-1-carboxylate]
[1]
  inhibition at 0.05 µM: 95%
  pIC50: 7.89
Gli-Luc/MEF cells (Smo)
  pIC50: 7.89

## COC(=O)N1CCN(c2cc(-c3nc4ccccc4n3C)c(Cl)cn2)CC1 [Example A-2, methyl 4-[5-chloro-4-(1-methyl-1H-benzimidazol-2-yl)pyridin-2-yl]piperazine-1-carboxylate]
[1]
  inhibition at 0.05 µM: 87%
  pIC50: 7.76
Gli-Luc/MEF cells (Smo)
  pIC50: 8.52

## Cn1c(-c2ccnc(N3CCC(CS(C)(=O)=O)CC3)c2)nc2ccccc21 [Example A-12, 1-methyl-2-(2-{4-[(methylsulfonyl)methyl]piperidin-1-yl}pyridin-4-yl)-1H-benzimidazole]
[1]
  inhibition at 0.05 µM: 82%
  pIC50: 7.32
Gli-Luc/MEF cells (Smo)
  pIC50: 7.64

## CC(=O)N1CCCN(c2cc(-c3nc4cccnc4n3C)c(Cl)cn2)CC1 [Example A-39, 2-[2-(4-acetyl-1,4-diazepan-1-yl)-5-chloropyridin-4-yl]-3-methyl-3H-imidazo[4,5-b]pyridine]
[1]
  inhibition at 0.05 µM: 92%
  pIC50: 7.35
Gli-Luc/MEF cells (Smo)
  pIC50: 7.52

## CCn1c(-c2cc(N3CCN(C(C)=O)CC3)ncc2Cl)nc2ccccc21 [Example A-214, 2-[2-(4-acetylpiperazin-1-yl)-5-chloropyridin-4-yl]-1-ethyl-1H-benzimidazole]
[1]
  inhibition at 0.05 µM: 63%
  pIC50: 6.36
Gli-Luc/MEF cells (Smo)
  pIC50: 6.91

## Cn1c(-c2cc(N3CCN(C(=O)CCS(C)(=O)=O)CC3)ncc2F)nc2ccccc21 [Example D-18, 1-{4-[5-fluoro-4-(1-methyl-1H-benzimidazol-2-yl)pyridin-2-yl]piperazin-1-yl}-3-(methylsulfonyl)propan-1-one]
[1]
  inhibition at 0.05 µM: 100%
  pIC50: 7.96
Gli-Luc/MEF cells (Smo)
  pIC50: 8.52

## CN(C)C(=O)COC1CCN(c2cc(-c3nc4ccccc4n3C)c(Cl)cn2)C1 (stereo in doubt) [Example A-126, 2-({(3R)-1-[5-chloro-4-(1-methyl-1H-benzimidazol-2-yl)pyridin-2-yl]pyrrolidin-3-yl}oxy)-N,N-dimethylacetamide]
[1]
  inhibition at 0.05 µM: 57%
Gli-Luc/MEF cells (Smo)
  pIC50: 6.96

## Cn1c(-c2cc(N3CCC(NS(C)(=O)=O)CC3)ncc2Cl)nc2cccnc21 [Example A-36, N-{1-[5-chloro-4-(3-methyl-3H-imidazo[4,5-b]pyridin-2-yl)pyridin-2-yl]piperidin-4-yl}methanesulfonamide]
[1]
  inhibition at 0.05 µM: 93%
  pIC50: 7.64
Gli-Luc/MEF cells (Smo)
  pIC50: 7.92

## Cn1c(-c2cc(N3CC(c4ccn[nH]4)C3)ncc2Cl)nc2ccccc21 [Example A-120, 2-{5-chloro-2-[3-(1H-pyrazol-5-yl)azetidin-1-yl]pyridin-4-yl}-1-methyl-1H-benzimidazole]
[1]
  inhibition at 0.05 µM: 62%
Gli-Luc/MEF cells (Smo)
  pIC50: 6.94

## Cn1c(-c2cc(N3CCC(OCCO)CC3)ncc2Cl)nc2ccccc21 [Example A-79, 2-({1-[5-chloro-4-(1-methyl-1H-benzimidazol-2-yl)pyridin-2-yl]piperidin-4-yl}oxy)ethanol]
[1]
  inhibition at 0.05 µM: 92%
  pIC50: 7.64
Gli-Luc/MEF cells (Smo)
  pIC50: 8.15

## Cn1c(-c2cc(N3CCN(C(=O)CC(C)(C)O)CC3)ncc2Cl)nc2ccccc21 [Example A-190, 4-{4-[5-chloro-4-(1-methyl-1H-benzimidazol-2-yl)pyridin-2-yl]piperazin-1-yl}-2-methyl-4-oxobutan-2-ol]
[1]
  inhibition at 0.05 µM: 98%
  pIC50: 8.15
Gli-Luc/MEF cells (Smo)
  pIC50: 8.85
